Each block holds one substance with its values, some of them ahead of it. In the oligonucleotide strings, read from the 5' end, every base follows the letter of its sugar. An asterisk marks phosphorothioate; unmarked linkages are phosphodiester. Other units and linkages are bracketed, terminal groups are in braces. A string of capitals states the bases alone. d = 2'-deoxy (DNA)
Tests used:
[1] = target: GST-PbrCrRLK1L13-ECD (pear (Pyrus bretschneideri)); test: SPR; Biacore T200, 25 °C; PbrCrRLK1L13 immobilised on a CM5 chip by amine coupling; running buffer 10 mM HEPES, 150 mM NaCl, 3 mM EDTA, pH 7.4; PbrRALF2 injected at 15, 30, 60 and 120 nM; steady-state 1:1 model; apparent
[2] = target: GST-PbrCrRLK1L13-ECD (pear (Pyrus bretschneideri))
[3] = target: GST-PbrCrRLK1L13-ECD (pear (Pyrus bretschneideri)); test: ITC; MicroCal ITC200, 25 °C; 200 μM PbrRALF2 in the syringe titrated into 20 μM PbrCrRLK1L13 extracellular domain; 50 mM phosphate pH 7.4, 150 mM NaCl; one set of sites model; apparent
PbrRALF11 = test: Expression of PbrRALF11 after PbrRALF2-ODN treatment; type: cell-based, pear
Experimental: (§1) The MIQE guidelines were followed for quantitative RT-PCR (qRT–PCR) experiments. The Plant Total RNA Isolation Kit (FOREGENE, Chengdu, China) was used to extract total RNA, and DNase I was used to eliminate genomic DNA contaminants. A RevertAid First Strand cDNA Synthesis Kit was used to reverse transcription purified total RNA (3 μg) (Thermo Scientific, USA). Then, using SYBR Green Master Mix on a LightCycler® 480 II (Roche, Switzerland), quantitative PCR (qPCR) was performed on 20-μl samples according to the manufacturer’s instructions. The thermal cycle was performed at 95 °C for 5 min, followed by 45 cycles of 15 s at 95 °C and 15 s at 60 °C. The pear TUBULIN gene was used as an internal control, and relative expression levels were evaluated using the 2CT2 − △△CT method, as previously described. The primers for RT-PCR and qRT–PCR of PbrRALFs, PbrCrRLK1L13, PbrMPK18, and PbrTUB in pear are presented in Supplementary Tables S5 and S6, respectively.
(§2) Twenty-mer phosphorothioate oligonucleotides against PbrRALF2, PbrCrRLK1L13, PbrMPK18, and their sense controls (s-ODN) were synthesized with three 5′- and 3′-phosphorothioate-modified bases, and a scrambled mismatch sequence was used as a control. […] More than 35 pollen tubes were measured in each treatment, and the experiments were repeated at least three times. […]

PbrRALF7 = test: Expression of PbrRALF7 after PbrRALF2-ODN treatment; type: cell-based, pear
Experimental: as §1, §2

FER = settings: Arabidopsis; cited from earlier work
From the text: (§3) PbrCrRLK1L13 interacts with its PbrRALF2 ligand via exJM at the plasma membrane (Fig. 2B), similar to the region where LORELEI and LLG1 physically interact with FER[42], thus implying a potentially conserved role for the exJM region of CrRLK1Ls. […] Such phosphorylation by peptides has similarly been observed for multiple receptor-like kin ...

BAK1 = settings: Arabidopsis; cited from earlier work
From the text: as §3

- Kd [1]: 0.073 µM
- IC50 of inhibition of pear pollen tube growth by E. coli-expressed PbrRALF2 (0.025-1 μM) [2]: 0.092 µM
- Kd [3]: 0.512 µM
Substance: recombinant PbrRALF2 (His-PbrRALF fusion protein from pCold-TF) (ligand)

Substance: PbrRALF2-ODN-2: antisense ODN GCGCACCGTAGCTGATGT (antisense dG*dC*dG*dCdAdCdCdGdTdAdGdCdTdGdA*dT*dG*dT)
- expression level of PbrRALF11 (PbrRALF11): not affected
- expression level of PbrRALF7 (PbrRALF7): not affected

Substance: PbrRALF2-ODN-1: antisense ODN GTGATGGCGCTGCAGCCGCGG (antisense dG*dT*dG*dAdTdGdGdCdGdCdTdGdCdAdGdCdCdG*dC*dG*dG)
- expression level of PbrRALF11 (PbrRALF11): not affected
- expression level of PbrRALF7 (PbrRALF7): not affected

Substance: RALF1: Arabidopsis RALF1, ligand of FER (ATTKYISYQSLKRNSVPCSRRGASYYNCQNGAQANPYSRGCSKIARCRS; UniProt Q9SRY3 72-120, looked up)
- FER phosphorylation (FER): triggers FER
- BAK1 phosphorylation (BAK1): BAK1[41] phosphorylation

From PMC8490453, “PbrRALF2-elicited reactive oxygen species signaling is mediated by the PbrCrRLK1L13-PbrMPK18 module in pear pollen tubes” (Horticulture Research, 2021)
